19 compounds from ChEMBL document CHEMBL1148275, “Discovery of thiophene-2-carboxylic acids as potent inhibitors of HCV NS5B polymerase and HCV subgenomic RNA replication. Part 1: Sulfonamides” (Bioorg Med Chem Lett, 2004) can be followed below.

The term IC50 denotes the midpoint of a concentration-inhibition curve. What is called CC50 is the concentration that lowers cell viability or growth by half. High values mean lower toxicity to the cells, low ones greater toxicity to the cells.

Test [1] has as its system Huh-7. The experiment in a line: Inhibitory concentration against Huh-7 human hepatoma cell line that supports replication of subgenomic HCV RNA replicons (replicon cell line). It counts as functional, cell-based. Background: A replicon is a self-replicating genome or part of one, used to study replication in cells.
A further test addresses Genome polyprotein (Hepatitis C virus genotype 1a (isolate 1) (HCV), UniProt P26664). The experiment in a line: Inhibition of HCV NS5B polymerase.
Test [2] relates to Huh-7. In words: Concentration required to suppress [3H]thymidine uptake by 50% in Huh-7 cells. It counts as functional. The settings on record: Homo sapiens.

Molecules are shown by their SMILES. Bounds are passed on as bounds.

Sequence of Genome polyprotein (P26664 2421-3011 limits assumed): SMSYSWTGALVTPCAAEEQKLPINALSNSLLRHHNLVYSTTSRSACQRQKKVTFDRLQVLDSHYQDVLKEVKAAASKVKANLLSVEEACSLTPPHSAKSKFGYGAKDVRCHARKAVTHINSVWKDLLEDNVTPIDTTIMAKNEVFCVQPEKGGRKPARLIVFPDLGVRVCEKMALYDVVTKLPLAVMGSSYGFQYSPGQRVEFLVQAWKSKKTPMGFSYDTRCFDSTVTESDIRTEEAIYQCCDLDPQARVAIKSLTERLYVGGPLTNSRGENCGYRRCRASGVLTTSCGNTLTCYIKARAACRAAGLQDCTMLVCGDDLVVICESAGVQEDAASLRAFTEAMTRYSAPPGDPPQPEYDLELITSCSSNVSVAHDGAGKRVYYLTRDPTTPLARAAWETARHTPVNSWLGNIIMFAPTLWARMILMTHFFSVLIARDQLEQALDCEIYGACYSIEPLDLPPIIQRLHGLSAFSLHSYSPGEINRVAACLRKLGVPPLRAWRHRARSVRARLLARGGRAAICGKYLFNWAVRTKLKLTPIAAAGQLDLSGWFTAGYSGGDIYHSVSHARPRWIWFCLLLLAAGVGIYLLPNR

For `Cc1cc(S(=O)(=O)Nc2cc(-c3ccccc3)sc2C(=O)O)c(C)cc1Cl`, the IC50 in the test with Huh-7 [1] stood at 14 µM; at Genome polyprotein, 5.4 µM. For the same compound, the CC50 in the test on Huh-7 [2] is 80 µM.
As for `Cc1ccc(S(=O)(=O)Nc2cc(-c3ccccc3)sc2C(=O)O)cc1`, the IC50 with Huh-7 [1] worked out at 33 µM; at Genome polyprotein, 4.6 µM. The same compound yielded a CC50 in the test on Huh-7 [2] of 79 µM.
Compound `O=C(O)C(Cc1ccccc1)N(Cc1cccc(C(F)(F)F)c1)C(=O)c1ccc(Cl)cc1Cl` (stereo not given) yielded an IC50 against Genome polyprotein of 1.8 µM.
With `Cc1cccc(S(=O)(=O)Nc2cc(-c3ccccc3)sc2C(=O)O)c1`, the half-inhibitory concentration (IC50) stood at 100 µM with Huh-7 [1] and 7.4 µM against Genome polyprotein. Half-maximal cytotoxicity with Huh-7 [2] (CC50) was put at 112 µM.
In the same order, the values of `CC(=O)c1ccc(-c2cc(NS(=O)(=O)c3ccc(C)cc3C)c(C(=O)O)s2)cc1` are 8 µM, 0.39 µM and 100 µM.
Compound `O=C(Nc1cc(-c2ccccc2)sc1C(=O)O)Oc1ccc(Cl)cc1` yielded an IC50 against Genome polyprotein of 13 µM.
Regarding `Cc1ccc(C)c(S(=O)(=O)Nc2cc(-c3ccccc3)sc2C(=O)O)c1`, the IC50 in the test on Huh-7 [1] is 11 µM; on Genome polyprotein it was 13 µM. In the test on Huh-7 [2], this compound displayed a cytotoxic concentration (CC50) of 24 µM.
Take `Cc1ccccc1C(=O)Nc1cc(-c2ccccc2)sc1C(=O)O`: half-maximal inhibition on Genome polyprotein (IC50) required 14 µM.
Turning to `Cc1ccccc1S(=O)(=O)Nc1cc(-c2ccccc2)sc1C(=O)O`, the IC50 was 24 µM with Huh-7 [1] and 5.2 µM against Genome polyprotein. Moreover, half-maximal cytotoxicity in the test on Huh-7 [2] (CC50) was put at 76 µM.
The compound `Cc1cc(S(=O)(=O)Nc2cc(-c3ccccc3)sc2C(N)=O)c(C)cc1Cl` registered an IC50 at Genome polyprotein of 14 µM.
Regarding `O=C(Nc1ccc(Cl)cc1)Nc1cc(-c2ccccc2)sc1C(=O)O`, the IC50 at Genome polyprotein was over 50 µM.
As for `Cc1ccccc1S(=O)(=O)Nc1cc(-c2ccc(S(C)(=O)=O)cc2)sc1C(=O)O`, the IC50 in the test with Huh-7 [1] is over 100 µM; against Genome polyprotein, 1.8 µM. Moreover, the CC50 with Huh-7 [2] was over 200 µM.
Taken in the same sequence, the figures for `CC(=O)c1ccc(-c2cc(NS(=O)(=O)c3ccccc3C)c(C(=O)O)s2)cc1` were 12 µM, 1.4 µM and 147 µM.
Turning to `Cc1ccc(S(=O)(=O)Nc2cc(-c3ccccc3)sc2C(=O)O)c(C)c1`, it took 1 µM to reach half-maximal inhibition against Genome polyprotein (IC50). The midpoint of cytotoxicity with Huh-7 [2], the CC50, lay at 57 µM.
Consider `Cc1ccc(C(=O)Nc2cc(-c3ccccc3)sc2C(=O)O)cc1`, for which the IC50 on Genome polyprotein stood at 12 µM.
On to `Cc1cc(Cl)ccc1S(=O)(=O)Nc1cc(-c2ccccc2)sc1C(=O)O`, for which the IC50 was determined as 13 µM in the test with Huh-7 [1] and 0.75 µM at Genome polyprotein. The compound also returned a CC50 in the test with Huh-7 [2] of 54 µM.
Taken in the same sequence, the figures for `O=C(O)c1sc(-c2ccccc2)cc1NS(=O)(=O)c1ccc(Cl)cc1` were 77 µM, 4.1 µM and 92 µM.
On Genome polyprotein, `Cc1ccccc1S(=O)(=O)Nc1cc(C(=O)O)sc1-c1ccccc1` returned an IC50 of over 50 µM.
Same read-out and setting: to `Cc1ccccc1S(=O)(=O)Nc1sc(-c2ccccc2)cc1C(=O)O` belongs 20 µM.
